The test system of this assay is C. elegans. Description: Retraction reflex of nematodes to a local thermal stimulus (laser, head region). In kind it is in vivo, Caenorhabditis elegans. The conditions noted are these: for effect on the reflex behaviour of the nematode: nematodes exposed to the substance, local thermal stimulus. The method, then: The inventors' experiments have thus shown that the use of C. elegans as an animal model for studying materials in terms of their suitability as medicaments in humans or other mammals allows reliable predictions to be made, especially where the sensation or perception of pain is involved, both in terms of algesic or hyperalgesic effects and in terms of analgesic effects. […] A normal reflex to a thermal stimulus of e.g. 32-40° C. in the head region of the nematode can be described as follows:
I) Rapid reflexive retraction by at least one whole body length and subsequent orientation of the head in another direction.
II) Rapid reflexive retraction, but without backward motion.
The well-fed test animals (C. elegans) (about 100; length about 1.3 mm; diameter 80 μm) were irradiated in the experiments with an infrared laser (685±0.5 nm). The laser beam was always focused on a spot of diameter 30 μm in the head region of the animal, a local warming to 33.5±1° C. being observed on an agar surface. To examine the animals' behaviour in greater detail, they were exposed to a nociceptive stimulus, after which they were incubated in capsaicin at concentrations varying from 1 to 100 μM. A strong reaction was still being observed 1 h after incubation.

For `Oc1cc2c(cc1O)CN(C(=S)NCCc1ccc(Cl)cc1)CCC2` [capzazepine], the “effect on the reflex behaviour of the nematode” value is recorded as “can be influenced”.
Consider `COc1cc(CNC(=O)CCCC/C=C/C(C)C)ccc1O` [capsaicin], for which the “effect on the reflex behaviour of the nematode” value is listed as “can be influenced”. Moreover, the “reaction (intensified reflex as in I)) in mutants” value (C. elegans mutants whose normal behaviour is that only 70% of the animals react as in I)) is “observed even more clearly”. For the same compound, where the note is “incubated in capsaicin 1 to 100 μM, 1 h after incubation, laser warming to 33.5±1° C. in head region, control group 80%”, the “animals exhibiting a reflex as in I) (rapid reflexive retraction by at least one whole body length)” value is “over 90%”.

(Values after patent US6702996B1, “Method for investigating the suitability of a material as a medicament” (Aventis Pharma Deutschland GmbH, priority 1999, dated 2004).)
